Experimental data: patent US11976083B2, “Inhibitors of peptidylarginine deiminases” (Gilead Sciences, Inc., priority 2020, dated 2024)

What follows are compounds tested against T1, human PAD4 (Homo sapiens, UniProt Q9UM07) (assay: In vitro PAD4 BAEE biochemical assay). Conditions: BAEE substrate 3 mM, 5 nM PAD4, 2 mM calcium chloride; geometric mean of multiple experiments.
T1 construct: human PAD4 (NM_012387), A2-P663, was PCR amplified; His-SUMO (N, cleaved yes); made in house; host or cells: E. coli BL21(DE3)
How it was run: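 Recombinant PAD4 (5 nM final) with 2 mM CaCl2 was preincubated with compound for 30 min at 25 °C in MOPS pH 7.6 buffer with DTT, then reacted with 3 mM BAEE for 2 h at 25 °C. Released ammonia was detected fluorimetrically with o-phthalaldehyde/DTT; IC50 from four-parameter fit, geometric mean of experiments.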

T1 sequence (Q9UM07 2-663): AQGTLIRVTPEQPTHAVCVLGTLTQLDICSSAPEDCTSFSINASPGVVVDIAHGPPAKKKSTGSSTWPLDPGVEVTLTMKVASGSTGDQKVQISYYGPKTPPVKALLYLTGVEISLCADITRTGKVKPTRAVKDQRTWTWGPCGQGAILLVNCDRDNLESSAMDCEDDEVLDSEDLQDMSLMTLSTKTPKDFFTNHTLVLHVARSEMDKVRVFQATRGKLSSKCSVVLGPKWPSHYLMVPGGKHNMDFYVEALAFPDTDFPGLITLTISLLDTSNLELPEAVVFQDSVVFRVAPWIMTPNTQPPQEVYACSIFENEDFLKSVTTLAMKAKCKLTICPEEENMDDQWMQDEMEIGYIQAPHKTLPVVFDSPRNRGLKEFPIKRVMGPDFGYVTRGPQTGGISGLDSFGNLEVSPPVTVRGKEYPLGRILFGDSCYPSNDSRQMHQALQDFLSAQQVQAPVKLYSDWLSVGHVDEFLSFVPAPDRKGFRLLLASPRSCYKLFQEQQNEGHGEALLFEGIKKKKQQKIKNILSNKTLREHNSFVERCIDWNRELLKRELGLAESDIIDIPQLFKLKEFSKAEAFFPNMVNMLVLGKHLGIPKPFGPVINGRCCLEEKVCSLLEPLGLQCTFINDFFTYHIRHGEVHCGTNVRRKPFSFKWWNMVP

| SMILES | IC50 [nM] |
| --- | --- |
| COc1cc(C(=O)N2[C@H]3CC[C@@H]2[C@H](N)C3)cc2nc(-c3cc4ccc5nc4n3CCCCCCC(=O)N[C@@H]5C)c(C)n12 [Example 317, (10~{R})-16-[7-[(1~{R},2~{R},4~{S})-2-amino-7-azabicyclo[2.2.1]heptane-7-carbonyl]-5-methoxy-3-methyl-imidazo[1,2-a]pyridin-2-yl]-10-methyl-1,9,18-triazatricyclo[9.5.2.0^{14,17}]octadeca-11(18),12,14(17),15-tetraen-8-one] | 16 |
| C[C@H]1NC(=O)[C@@H]2C[C@H]2CCCC(F)(F)Cn2c(-c3nc4cc(C(=O)N5C[C@H](N)[C@@H]6CC[C@H]5C6)ccc4n3C3CC3)cc3ccc1nc32 [Example 914, (2~{R},5~{R},7~{R})-14-[5-[(1~{S},4~{R},5~{R})-4-amino-2-azabicyclo[3.2.1]octane-2-carbonyl]-1-cyclopropyl-benzimidazol-2-yl]-11,11-difluoro-2-methyl-3,13,19-triazatetracyclo[11.5.2.0^ {5,7}.0^{16,20}]icosa-1(19), 14,16(20),17-tetraen-4-one] | 16 |
| C[C@H]1NC(=O)[C@H]2[C@@H](CCCCCn3c(-c4nc5cc(C(=O)N[C@H]6CNCC[C@@H]6F)c(F)cc5n4C)cc4ccc1nc43)C2(F)F (single isomer, unassigned) [Example 381, 2-[(2˜{R},5˜{R},7˜{R})-6,6-difluoro-2-methyl-4-oxo-3,13,19-triazatetracyclo[11.5.2.0^{5,7}.0^{16,20}]icosa-1(19),14,16(20),17-tetraen-14-yl]-6-fluoro-˜{N}-[(3˜{S},4˜{S})-4-fluoro-3-piperidyl]-1-methyl-benzimidazole-5-carboxamide] | 29 |
| C[C@H]1NC(=O)c2cnccc2CCCCCn2c(-c3nc4cc(C(=O)N[C@H]5CNCC[C@@H]5F)c(F)cc4n3C)cc3ccc1nc32 [Example 349, 6-fluoro-~{N}-[(3~{S},4~{S})-4-fluoro-3-piperidyl]-1-methyl-2-[(2~{R})-2-methyl-4-oxo-3,7,16,22-tetrazatetracyclo[14.5.2.0^{5,10}.0^{19,23}]tricosa-1(22),5,7,9,17,19(23),20-heptaen-17-yl]benzimidazole-5-carboxamide] | 34 |
| C[C@H]1NC(=O)[C@@H]2C[C@H]2CCCCCn2c(-c3nc4cc(C(=O)N5C[C@H](N)[C@@H]6CC[C@H]5C6)ccc4n3C3CC3)cc3ccc1nc32 [Example 913, (2~{R},5~{R},7~{R})-14-[5-[(1~{S},4~{R},5~{R})-4-amino-2-azabicyclo[3.2.1]octane-2-carbonyl]-1-cyclopropyl-benzimidazol-2-yl]-2-methyl-3,13,19-triazatetracyclo [11.5.2.0^{5,7}.0^{16,20}] icosa-1(19),14,16(20),17-tetraen-4-one] | 22 |
| C[C@H]1NC(=O)[C@@H]2C[C@H]2CCCCCn2c(-c3nc4cc(C(=O)N[C@H]5CNCC[C@@H]5F)c(F)cc4n3C3CC34CC4)cc3ccc1nc32 (stereo partly shown) [Example 571, 6-fluoro-~{N}-[(3~ {S},4~{S})-4-fluoro-3-piperidyl]-2-[(2~{R}, 5~{R},7~{R})-2-methyl-4-oxo-3,13,19-triazatetracyclo[11.5.2.0^ {5,7}.0^{16,20}]icosa-1(19),14,16(20),17-tetraen-14-yl]-1-spiro [2.2]pentan-2-yl-benzimidazole-5-carboxamide] | 31 |

Results, then the compound that gave them:

| IC50 [nM] | SMILES |
| --- | --- |
| 33 | COc1cc(C(=O)N2[C@H]3CC[C@@H]2[C@H](N)C3)cc2nc(-c3cc4ccc5cc4n3CCCCCCC(C)(C)C(=O)N[C@@H]5C)n(C)c12 [Example 216, (11˜{R})-17-[5-[(1˜{R},2˜{R},4˜{S})-2-amino-7-azabicyclo[2.2.1]heptane-7-carbonyl]-7-methoxy-1-methyl-benzimidazol-2-yl]-8,8,11-trimethyl-1,10-diazatricyclo[10.5.2.0^{15,18}]nonadeca-12(19),13,15(18),16-tetraen-9-one] |
| 109 | COc1cc(C(=O)N2CC[C@@H](OC)[C@@H](N)C2)cc2nc(-c3cc4ccc5cc4n3CCCCCCC(C)(C)C(=O)N[C@@H]5C)n(C)c12 [Example 173, (11~{R})-17-[5-[(3~{S},4~{R})-3-amino-4-methoxy-piperidine-1-carbonyl]-7-methoxy-1-methyl-benzimidazol-2-yl]-8,8,11-trimethyl-1,10-diazatricyclo[10.5.2.0^{15,18}]nonadeca-12(19),13,15(18),16-tetraen-9-one] |
| 66 | COc1cc(C(=O)N[C@H]2CNCC[C@@H]2F)cc2nc(-c3cc4ccc5nc4n3CCCCCc3nn(C)nc3C(=O)N[C@@H]5C)n(C)c12 [Example 185, 2-[(2~{R})-2,7-dimethyl-4-oxo-3,6,7,8,15,21-hexazatetracyclo[13.5.2.0^{5,9}.0^{18,22}]docosa-1(21),5,8,16,18(22),19-hexaen-16-yl]-~{N}-[(3~{S),4~{S})-4-fluoro-3-piperidyl]-7-methoxy-1-methyl-benzimidazole-5-carboxamide] |
| 113 | COc1cc(C(=O)N2[C@H]3CC[C@@H]2[C@H](N)C3)cc2nc(-c3cc4ccc5nc4n3CCCCCCCC(=O)Nc3ncccc3-5)n(C)c12 [Example 89, 18-[5-[(1~{R},2~{R},4~{S})-2-amino-7-azabicyclo[2.2.1]heptane-7-carbonyl]-7-methoxy-1-methyl-benzimidazol-2-yl]-6,8,17,23-tetrazatetracyclo[15.5.2.0^{2,7}.0^{20,24}] tetracosa-1(23),2,4,6,18,20(24),21-heptaen-9-one] |
| 59 | COc1cc(C(=O)N2CC[C@@H](OC)[C@@H](N)C2)cc2nc(-c3cc4ccc5nc4n3CCCCCc3cncc(F)c3C(=O)N[C@@H]5C)n(C)c12 [Example 650, (2~{R})-17-[5-[(3~{S}, 4~{R})-3-amino-4-methoxy-piperidine-1-carbonyl]-7-methoxy-1-methyl-benzimidazol-2-yl]-6-fluoro-2-methyl-3,8,16,22-tetrazatetracyclo[14.5.2.0^ {5,10}.0^{19,23}]tricosa-1(22),5,7,9,17,19(23),20-heptaen-4-one] |
| 339 | CCC1NC(=O)C(C)(C)CCCCCCn2c(-c3nc4cc(C(=O)N5CC[C@@H](OC)[C@@H](N)C5)cc(OC)c4n3C)cc3ccc1nc32 (stereo partly shown) [Example 779, 17-[5-[(3~{S),4~{R})-3-amino-4-methoxy-piperidine-1-carbonyl]-7-methoxy-1-methyl-benzimidazol-2-yl]-11-ethyl-8,8-dimethyl-1,10,19-triazatricyclo[10.5.2.0^ {15,18}]nonadeca-12,14,16,18-tetraen-9-one] |
| 55 | COc1cc(C(=O)N2C[C@H](N)[C@@H]3CC[C@H]2C3)cc2nc(-c3cc4ccc5nc4n3CCCCCc3c(F)ccc(F)c3C(=O)N[C@@H]5C)n(C)c12 [Example 903, (2~{R})-17-[5-[(1~{S},4~{R}, 5~{R})-4-amino-2-azabicyclo [3.2.1]octane-2-carbonyl]-7-methoxy-1-methyl-benzimidazol-2-yl]-6,9-difluoro-2-methyl-3,16,22-triazatetracyclo [14.5.2.0^{5,10}.0^{19,23}] tricosa-1(22),5(10),6,8,17, 19(23),20-heptaen-4-one] |
